Test results from BindingDB's records for doi:10.1021/jm800940u (Schering-Plough Research Institute, 2009).

Target: Genome polyprotein (Hepatitis C virus genotype 1a (isolate H77), UniProt P27958)
Assay: Continuous Spectrophotometric Assay
Description: Proteolytic cleavage of the ester linkage between the Nva (L-norvaline) and the chromophore (PAP) was monitored for change in absorbance at 370 nm. Initial velocities were determined using linear regression and kinetic constants were obtained by fitting the data to the Michaelis-Menten equation.

Genome polyprotein, sequence (P27958 1027-1657 limits assumed): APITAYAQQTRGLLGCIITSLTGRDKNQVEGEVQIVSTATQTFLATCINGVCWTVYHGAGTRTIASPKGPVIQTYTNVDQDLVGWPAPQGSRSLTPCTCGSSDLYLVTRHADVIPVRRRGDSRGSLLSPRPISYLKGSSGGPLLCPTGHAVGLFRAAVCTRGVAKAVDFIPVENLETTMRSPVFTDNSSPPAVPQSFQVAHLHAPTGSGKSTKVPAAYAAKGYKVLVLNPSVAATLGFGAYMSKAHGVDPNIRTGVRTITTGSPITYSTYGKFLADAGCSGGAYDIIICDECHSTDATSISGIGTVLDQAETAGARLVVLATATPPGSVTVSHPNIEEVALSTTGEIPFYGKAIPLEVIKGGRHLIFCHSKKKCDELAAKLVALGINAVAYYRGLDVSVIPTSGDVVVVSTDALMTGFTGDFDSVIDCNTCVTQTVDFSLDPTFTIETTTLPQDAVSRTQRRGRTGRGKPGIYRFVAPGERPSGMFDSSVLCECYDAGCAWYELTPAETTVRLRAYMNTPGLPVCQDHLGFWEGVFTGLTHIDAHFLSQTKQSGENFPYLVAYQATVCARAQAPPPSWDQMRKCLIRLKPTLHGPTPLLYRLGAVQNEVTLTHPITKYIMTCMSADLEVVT

| SMILES | Ki (pH 6.5, 30 °C) | Ki |
| --- | --- | --- |
| CC(C)(C)NC(=O)N[C@H]1CCCCCCCCCC[C@@H](C(=O)C(N)=O)NC(=O)[C@@H]2[C@@H]3[C@H](CN2C1=O)C3(C)C [2-[(3S,14S,17S,18R,20S)-3-[(tert-butylcarbamoyl)amino]-19,19-dimethyl-2,16-dioxo-1,15-diazatricyclo[15.4.0.0^{18,20}]henicosan-14-yl]-2-oxoacetamide] | 59 nM |  |
| C=CCNC(=O)C(=O)[C@@H]1CCCCCCCCC[C@H](NC(=O)N[C@H](CN2C(=O)CN(C)CC2=O)C(C)(C)C)C(=O)N2C[C@H]3[C@@H]([C@H]2C(=O)N1)C3(C)C [2-[(3S,13S,16S,17R,19S)-3-({[(2S)-3,3-dimethyl-1-(4-methyl-2,6-dioxopiperazin-1-yl)butan-2-yl]carbamoyl}amino)-18,18-dimethyl-2,15-dioxo-1,14-diazatricyclo[14.4.0.0^{17,19}]icosan-13-yl]-2-oxo-N-(prop-2-en-1-yl)acetamide] |  | 4 nM |
| C=CCNC(=O)C(=O)[C@@H]1CCCCCCCCC[C@H](NC(=O)N[C@H](CN2C(=O)CC(C)(C)CC2=O)C(C)(C)C)C(=O)N2C[C@H]3[C@@H]([C@H]2C(=O)N1)C3(C)C [2-[(3S,13S,16S,17R,19S)-3-({[(2S)-1-(4,4-dimethyl-2,6-dioxopiperidin-1-yl)-3,3-dimethylbutan-2-yl]carbamoyl}amino)-18,18-dimethyl-2,15-dioxo-1,14-diazatricyclo[14.4.0.0^{17,19}]icosan-13-yl]-2-oxo-N-(prop-2-en-1-yl)acetamide] |  | 2 nM |
| C=CCNC(=O)C(=O)[C@@H]1CCCCCCCCC[C@H](NC(=O)N[C@H](CN(C)S(=O)(=O)c2cccs2)C(C)(C)C)C(=O)N2C[C@H]3[C@@H]([C@H]2C(=O)N1)C3(C)C [2-[(3S,13S,16S,17R,19S)-3-({[(2S)-3,3-dimethyl-1-[methyl(thiophene-2-)sulfonamido]butan-2-yl]carbamoyl}amino)-18,18-dimethyl-2,15-dioxo-1,14-diazatricyclo[14.4.0.0^{17,19}]icosan-13-yl]-2-oxo-N-(prop-2-en-1-yl)acetamide] | 5 nM |  |
| CN(C[C@@H](NC(=O)N[C@H]1CCCCCCCCC[C@@H](C(=O)C(=O)NCC2CC2)NC(=O)[C@@H]2[C@@H]3[C@H](CN2C1=O)C3(C)C)C(C)(C)C)S(=O)(=O)c1cccs1 [N-(cyclopropylmethyl)-2-[(3S,13S,16S,17R,19S)-3-({[(2S)-3,3-dimethyl-1-[methyl(thiophene-2-)sulfonamido]butan-2-yl]carbamoyl}amino)-18,18-dimethyl-2,15-dioxo-1,14-diazatricyclo[14.4.0.0^{17,19}]icosan-13-yl]-2-oxoacetamide] | 21 nM |  |
| CN(C[C@@H](NC(=O)N[C@H]1CCCCCCCCC[C@@H](C(=O)C(N)=O)NC(=O)[C@@H]2[C@@H]3[C@H](CN2C1=O)C3(C)C)C(C)(C)C)S(=O)(=O)c1cccs1 [2-[(3S,13S,16S,17R,19S)-3-({[(2S)-3,3-dimethyl-1-[methyl(thiophene-2-)sulfonamido]butan-2-yl]carbamoyl}amino)-18,18-dimethyl-2,15-dioxo-1,14-diazatricyclo[14.4.0.0^{17,19}]icosan-13-yl]-2-oxoacetamide] | 2 nM |  |
| C=CCNC(=O)C(=O)[C@@H]1CCCCCCCCC[C@H](NC(=O)N[C@H](CN2Cc3sccc3S2(=O)=O)C(C)(C)C)C(=O)N2C[C@H]3[C@@H]([C@H]2C(=O)N1)C3(C)C [2-[(3S,13S,16S,17R,19S)-3-({[(2S)-1-(1,1-dioxo-2H,3H-1,4,2-thieno[2,3-d][1,2]thiazol-2-yl)-3,3-dimethylbutan-2-yl]carbamoyl}amino)-18,18-dimethyl-2,15-dioxo-1,14-diazatricyclo[14.4.0.0^{17,19}]icosan-13-yl]-2-oxo-N-(prop-2-en-1-yl)acetamide] |  | 7 nM |
| CN(C)C(=O)[C@@H](NC(=O)CNC(=O)C(=O)[C@@H]1CCCCCCCCCC[C@H](NC(=O)NC(C)(C)C)C(=O)N2C[C@H]3[C@@H]([C@H]2C(=O)N1)C3(C)C)c1ccccc1 [2-[(3S,14S,17S,18R,20S)-3-[(tert-butylcarbamoyl)amino]-19,19-dimethyl-2,16-dioxo-1,15-diazatricyclo[15.4.0.0^{18,20}]henicosan-14-yl]-N-({[(S)-(dimethylcarbamoyl)(phenyl)methyl]carbamoyl}methyl)-2-oxoacetamide] | 6 nM |  |
| CN(C)C(=O)[C@@H](NC(=O)CNC(=O)C(=O)[C@@H]1CCCCCCCCCC[C@H](NC(=O)OC(C)(C)C)C(=O)N2C[C@H]3[C@@H]([C@H]2C(=O)N1)C3(C)C)c1ccccc1 [tert-butyl N-[(3S,14S,17S,18R,20S)-14-{[({[(S)-(dimethylcarbamoyl)(phenyl)methyl]carbamoyl}methyl)carbamoyl]carbonyl}-19,19-dimethyl-2,16-dioxo-1,15-diazatricyclo[15.4.0.0^{18,20}]henicosan-3-yl]carbamate] | 6 nM |  |
| CC(C)(C)OC(=O)N[C@H]1CCCCCCC[C@@H](C(=O)C(N)=O)NC(=O)[C@@H]2[C@@H]3[C@H](CN2C1=O)C3(C)C [tert-butyl N-[(3S,11S,14S,15R,17S)-11-(carbamoylcarbonyl)-16,16-dimethyl-2,13-dioxo-1,12-diazatricyclo[12.4.0.0^{15,17}]octadecan-3-yl]carbamate] | 210 nM |  |
| CC(C)(C)OC(=O)N[C@H]1CCCCCCCCC[C@@H](C(=O)C(N)=O)NC(=O)[C@@H]2[C@@H]3[C@H](CN2C1=O)C3(C)C [tert-butyl N-[(3S,13S,16S,17R,19S)-13-(carbamoylcarbonyl)-18,18-dimethyl-2,15-dioxo-1,14-diazatricyclo[14.4.0.0^{17,19}]icosan-3-yl]carbamate] | 30 nM |  |
| CC(C)[C@H](NC(=O)N[C@H]1CCCCCCCCC[C@@H](C(=O)C(N)=O)NC(=O)[C@@H]2[C@@H]3[C@H](CN2C1=O)C3(C)C)C(=O)C1CC1 [2-[(3S,13S,16S,17R,19S)-3-({[(2S)-1-cyclopropyl-3-methyl-1-oxobutan-2-yl]carbamoyl}amino)-18,18-dimethyl-2,15-dioxo-1,14-diazatricyclo[14.4.0.0^{17,19}]icosan-13-yl]-2-oxoacetamide] | 11 nM |  |
| CC(C)(C)OC(=O)N[C@H]1CCCCCCCC[C@@H](C(=O)C(N)=O)NC(=O)[C@@H]2[C@@H]3[C@H](CN2C1=O)C3(C)C [tert-butyl N-[(3S,12S,15S,16R,18S)-12-(carbamoylcarbonyl)-17,17-dimethyl-2,14-dioxo-1,13-diazatricyclo[13.4.0.0^{16,18}]nonadecan-3-yl]carbamate] | 36 nM |  |
| C=CCNC(=O)C(=O)[C@@H]1CCCCCCCCC[C@H](NC(=O)N[C@H](CN(C)S(=O)(=O)c2ccccn2)C(C)(C)C)C(=O)N2C[C@H]3[C@@H]([C@H]2C(=O)N1)C3(C)C [2-[(3S,13S,16S,17R,19S)-3-({[(2S)-3,3-dimethyl-1-[methyl(pyridine-2-)sulfonamido]butan-2-yl]carbamoyl}amino)-18,18-dimethyl-2,15-dioxo-1,14-diazatricyclo[14.4.0.0^{17,19}]icosan-13-yl]-2-oxo-N-(prop-2-en-1-yl)acetamide] |  | 7 nM |
| C=CCNC(=O)C(=O)[C@@H]1CCCCCCCCC[C@H](NC(=O)N[C@H](C(=O)C2CC2)C2CCCCC2)C(=O)N2C[C@H]3[C@@H]([C@H]2C(=O)N1)C3(C)C [2-[(3S,13S,16S,17R,19S)-3-({[(1S)-1-cyclohexyl-2-cyclopropyl-2-oxoethyl]carbamoyl}amino)-18,18-dimethyl-2,15-dioxo-1,14-diazatricyclo[14.4.0.0^{17,19}]icosan-13-yl]-2-oxo-N-(prop-2-en-1-yl)acetamide] |  | 6 nM |
| C=CCNC(=O)C(=O)[C@@H]1CCCCCCCCC[C@H](NC(=O)N[C@H](CN(C)S(C)(=O)=O)C(C)(C)C)C(=O)N2C[C@H]3[C@@H]([C@H]2C(=O)N1)C3(C)C [2-[(3S,13S,16S,17R,19S)-3-({[(2S)-1-[methane(methyl)sulfonamido]-3,3-dimethylbutan-2-yl]carbamoyl}amino)-18,18-dimethyl-2,15-dioxo-1,14-diazatricyclo[14.4.0.0^{17,19}]icosan-13-yl]-2-oxo-N-(prop-2-en-1-yl)acetamide] |  | 3 nM |
| CN(C)C(=O)[C@@H](NC(=O)CNC(=O)C(=O)[C@@H]1CCCC/C=C/CCCC[C@H](NC(=O)OC(C)(C)C)C(=O)N2C[C@H]3[C@@H]([C@H]2C(=O)N1)C3(C)C)c1ccccc1 [tert-butyl N-[(3S,8E,14S,17S,18R,20S)-14-{[({[(S)-(dimethylcarbamoyl)(phenyl)methyl]carbamoyl}methyl)carbamoyl]carbonyl}-19,19-dimethyl-2,16-dioxo-1,15-diazatricyclo[15.4.0.0^{18,20}]henicos-8-en-3-yl]carbamate] | 5 nM |  |
| C=CCNC(=O)C(=O)[C@@H]1CCCCCCCCC[C@H](NC(=O)N[C@H](CN2CCC(C)(C)CC2=O)C(C)(C)C)C(=O)N2C[C@H]3[C@@H]([C@H]2C(=O)N1)C3(C)C [2-[(3S,13S,16S,17R,19S)-3-({[(2S)-1-(4,4-dimethyl-2-oxopiperidin-1-yl)-3,3-dimethylbutan-2-yl]carbamoyl}amino)-18,18-dimethyl-2,15-dioxo-1,14-diazatricyclo[14.4.0.0^{17,19}]icosan-13-yl]-2-oxo-N-(prop-2-en-1-yl)acetamide] |  | 2 nM |
| CC1(NC(=O)N[C@H]2CCCCCCCCCC[C@@H](C(=O)C(N)=O)NC(=O)[C@@H]3[C@@H]4[C@H](CN3C2=O)C4(C)C)CCCCC1 [2-[(3S,14S,17S,18R,20S)-19,19-dimethyl-3-{[(1-methylcyclohexyl)carbamoyl]amino}-2,16-dioxo-1,15-diazatricyclo[15.4.0.0^{18,20}]henicosan-14-yl]-2-oxoacetamide] | 36 nM |  |
| C=CCNC(=O)C(=O)[C@@H]1CCCCCCCCC[C@H](NC(=O)N[C@H](CN2C(=O)c3ccccc3C2=O)C(C)(C)C)C(=O)N2C[C@H]3[C@@H]([C@H]2C(=O)N1)C3(C)C [2-[(3S,13S,16S,17R,19S)-3-({[(2S)-1-(1,3-dioxo-2,3-dihydro-1H-isoindol-2-yl)-3,3-dimethylbutan-2-yl]carbamoyl}amino)-18,18-dimethyl-2,15-dioxo-1,14-diazatricyclo[14.4.0.0^{17,19}]icosan-13-yl]-2-oxo-N-(prop-2-en-1-yl)acetamide] |  | 16 nM |
